Reference: US9776972B2, “Pyrazole derivatives as arginine methyltransferase inhibitors and uses thereof” (priority 2013, dated 2017)

Tests used:
human PRMT1 = molecular target: T1, human PRMT1 (Homo sapiens, UniProt Q99873); test: PRMT1 Biochemical Assay (3H-SAM Flashplate, peptide substrate); conditions: single experiment or average of multiple experiments
T1 construct: GST-tagged PRMT1; made in house; host or cells: High Five insect cells (baculovirus)
In short: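 GST-tagged PRMT1 from baculovirus-infected cells, preincubated with compounds 30 min at room temperature in 20 mM Bicine pH 7.6, 1 mM TCEP, 0.005% BSG, 0.002% Tween 20. Reaction started with ³H-SAM plus biotinylated peptide, stopped with 300 µM cold SAM.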

human PRMT8 = human PRMT8 (Homo sapiens, UniProt Q9NR22); test: PRMT8 Biochemical Assay (3H-SAM Flashplate, peptide substrate); conditions: single experiment or average of multiple experiments
In short: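 Methylation of a biotin-tagged histone H4 peptide (residues 31-45) by recombinant PRMT8 was measured as 3H transfer from 3H-SAM, after a 30 min room-temperature compound preincubation in Bicine buffer pH 7.6. Reactions were quenched with unlabelled SAM to 400 uM final, then bound counts were read by streptavidin Flashplate. IC50 came from a Hill fit of % inhibition relative to max and SAH min controls.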

T1 sequence (Q99873 with tags, fused parts or gaps): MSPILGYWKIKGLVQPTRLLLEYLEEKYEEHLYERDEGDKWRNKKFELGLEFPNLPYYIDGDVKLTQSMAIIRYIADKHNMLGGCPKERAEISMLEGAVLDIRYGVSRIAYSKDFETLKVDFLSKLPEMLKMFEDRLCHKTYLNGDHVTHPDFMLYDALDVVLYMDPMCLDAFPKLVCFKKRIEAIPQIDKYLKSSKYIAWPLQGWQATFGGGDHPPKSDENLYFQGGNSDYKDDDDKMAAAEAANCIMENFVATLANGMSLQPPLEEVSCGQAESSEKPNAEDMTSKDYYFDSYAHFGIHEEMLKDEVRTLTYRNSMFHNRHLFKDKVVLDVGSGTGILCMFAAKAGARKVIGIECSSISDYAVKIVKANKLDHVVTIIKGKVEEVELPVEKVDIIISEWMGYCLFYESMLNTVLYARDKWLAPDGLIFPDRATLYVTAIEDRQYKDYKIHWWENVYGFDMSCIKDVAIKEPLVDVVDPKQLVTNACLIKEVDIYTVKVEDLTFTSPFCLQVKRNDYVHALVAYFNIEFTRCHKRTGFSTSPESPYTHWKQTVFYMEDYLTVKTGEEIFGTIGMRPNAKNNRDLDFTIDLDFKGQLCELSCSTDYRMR
Chain of human PRMT8 (Q9NR22 whole entry, the tested form may be a part): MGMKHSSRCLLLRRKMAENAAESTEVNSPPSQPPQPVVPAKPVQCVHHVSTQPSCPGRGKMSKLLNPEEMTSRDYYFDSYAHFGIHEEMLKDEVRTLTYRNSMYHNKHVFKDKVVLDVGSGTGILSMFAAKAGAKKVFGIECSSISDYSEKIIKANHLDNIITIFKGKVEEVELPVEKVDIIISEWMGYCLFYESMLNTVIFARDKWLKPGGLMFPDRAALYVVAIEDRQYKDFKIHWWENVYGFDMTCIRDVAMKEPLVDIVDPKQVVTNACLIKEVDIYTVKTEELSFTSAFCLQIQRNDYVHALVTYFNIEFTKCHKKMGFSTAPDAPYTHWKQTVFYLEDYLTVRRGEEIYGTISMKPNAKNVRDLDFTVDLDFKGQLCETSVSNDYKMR

IC50 (human PRMT1) [nM] | IC50 (human PRMT8) [nM] | SMILES
278 | 3730 | CN(CCN)Cc1c[nH]nc1-c1ccccc1F [Compound 72]
126 | 959 | CN(CCN)Cc1c[nH]nc1-c1ccccc1 [Compound 73]
14.9 | 185 | CN(CCN)Cc1c[nH]nc1-c1ccc(C(C)(C)C)cc1 [Compound 74]
616 | 2510 | CC(C)N(CCN)Cc1c[nH]nc1-c1ccc(F)cc1 [Compound 75]
328 | 1490 | NCCN(Cc1c[nH]nc1-c1ccc(F)cc1)C1CC1 [Compound 78]
435 | 3450 | CN(CCN)Cc1cnn(C2COC2)c1-c1ccc(F)cc1 [Compound 81]
96.1 | 2470 | CN(CCN)Cc1c[nH]nc1-c1ccc(N2CCNCC2)cc1 [Compound 82]
30.3 | 710 | CN(CCN)Cc1nn(C)cc1-c1ccc(C#N)cc1 [Compound 83]
24 | 740 | CN(CCN)Cc1c[nH]nc1-c1ccc(Cl)cc1Cl [Compound 86]
172 | 3110 | COc1ccc(-c2n[nH]cc2CN(C)CCN)c(OC)c1 [Compound 87]
128 | 1890 | Cc1ccc(-c2n[nH]cc2CN(C)CCN)c(C)c1 [Compound 88]
67.4 | 1730 | CN(CCN)Cc1c[nH]nc1-c1ccc(F)cc1Cl [Compound 89]
41.3 | 1380 | Cc1ccc(-c2n[nH]cc2CN(C)CCN)c(Cl)c1 [Compound 90]
272 | 6900 | Cc1ccc(Cl)c(-c2n[nH]cc2CN(C)CCN)c1 [Compound 91]
5.69 | 152 | CN(CCN)Cc1c[nH]nc1-c1ccc(C(F)(F)F)cc1 [Compound 92]
4.64 | 76.1 | CN(CCN)Cc1c[nH]nc1-c1ccc(OC(F)(F)F)cc1 [Compound 93]
7.97 | 198 | CN(CCN)Cc1c[nH]nc1-c1ccc(OC(F)F)cc1 [Compound 94]
7.84 | 207 | CN(CCN)Cc1c[nH]nc1-c1ccc(Cl)cc1 [Compound 95]

More lines, now with the values behind:

SMILES | IC50 (human PRMT1) [nM] | IC50 (human PRMT8) [nM]
CN(CCN)Cc1cn(C)nc1-c1ccc(F)cc1 [Compound 3] | 58.1 | 960
CN(CCN)Cc1cnn(C)c1-c1ccc(F)cc1 [Compound 4] | 152 | 2430
COCCn1cc(CN(C)CCN)c(-c2ccc(F)cc2)n1 [Compound 5] | 1190 | 4200
CCN(CCNC)Cc1c[nH]nc1-c1ccc(F)cc1 [Compound 9] |  | 396
CNCCN(C)Cc1cnn(C)c1-c1ccc(F)cc1 [Compound 10] |  | 693
CNCCN(C)Cc1c[nH]nc1-c1cccc(N)c1 [Compound 32] |  | 1530
CNCCN(C)Cc1c[nH]nc1-c1ccc(CC#N)cc1 [Compound 34] |  | 773
CNCCN(C)Cc1c[nH]nc1-c1ccccc1O [Compound 35] |  | 24800
CNCCN(C)Cc1c[nH]nc1-c1cccc(OC(F)(F)F)c1 [Compound 39] |  | 596
CNCCN(C)Cc1c[nH]nc1-c1ccccc1NS(C)(=O)=O [Compound 41] |  | 40000
CNCCN(C)Cc1c[nH]nc1-c1cccc(NC(C)=O)c1 [Compound 42] |  | 1540
CNCCN(C)Cc1c[nH]nc1-c1cccc(C(C)=O)c1 [Compound 44] |  | 522
CNCCN(C)Cc1c[nH]nc1-c1ccc(-c2ccccc2)cc1 [Compound 47] |  | 90.8
CNCCN(C)Cc1c[nH]nc1-c1ccccc1F [Compound 48] |  | 2170
CN(CCN)Cc1n[nH]cc1-c1ccc(F)cc1 [Compound 69] | 51.1 | 2040
CN(CCN)Cc1c[nH]nc1-c1cccc(C#N)c1 [Compound 70] | 200 | 2490
CN(CCN)Cc1c[nH]nc1-c1cccc(F)c1 [Compound 71] | 18.8 | 347
CN(CCN)Cc1cn(C2COC2)nc1-c1ccc(F)cc1 [Compound 77] | 215 | 1660
CN(CCN)Cc1c[nH]nc1-c1ccc(C(F)(F)F)cc1C(F)(F)F [Compound 85] | 234 | 4260
